Data reported in patent EP0087858A1, “New chromanone compounds and pharmaceutical compositions containing them” (priority 1982, dated 1983).

Columns and labels:
Acute toxicity = conditions: mouse, in vivo, male dd mice, deaths up to 72 hours
Method: Groups of 10 male dd mice weighing some 18 g were orally or intraperitoneally administered the examined drugs and the number of death up to 72 hours later was recorded.
An example of results is shown in Table 1: the drugs are those numbered correspondingly above. Administration is oral (p.o.) or intraperitoneal (i.p.)

dd mice = assay: Analgesic effects by a modified Haffner method; format: in vivo; conditions: 2 mg/kg morphine hydrochloride s.c. 30 minutes later, tail squeeze
Method: Groups of 10 dd mice were orally administered the examined drugs and 30 minutes later 2 mg/kg of morphine hydrochloride, the threshold dose, was injected subcutaneously. At 15, 30, 45 and 60 minutes thereafter, the root of mouse's tail was squeezed with a Kocher's forceps.

male dd mice = assay: Analgesic effects by acetic acid writhing test; format: in vivo; conditions: inhibition rate of stretching after 0.6% acetic acid i.p.
Method: 30 minutes after the examined drugs were given orally, 0.1 ml/10 g of 0.6% acetic acid solution was intraperitoneally administered to groups of 10 male dd mice weighing some 18 g. The number of stretching was calculated during an observation period of 15 to 20 minutes after acetic acid treatment. The average inhibition rate of stretching among 8 animals was regarded as the inhibition rate of the drug, excluding 2 animals showing maximum and minimum number of stretching.

[1] = tested on: plantaroedema induced by carrageenin; assay: Inhibition of plantaroedema induced by carrageenin; format: in vivo; conditions: rats, 60 minutes before 0.1 ml of 1% carrageenin into the sole
Method: 60 minutes after the drugs had been orally administered to groups of rats, 0.1 ml of 1% carrageenin solution was injected subcutaneously into the sole. The rate of increase in volume of the hind food compared with volume before carrageenin treatment was regarded as oedema rate.

[2] = tested on: gastric irritation/ulceration; assay: Gastric irritation; format: in vivo; conditions: rats, 8 hours after dosing, aspirin (150 mg/kg) or indomethacin (40 mg/kg) taken as 100%
Method: 8 hours after the examined drugs were orally administered to groups of rats, degree of gastric irritation/ulceration produced by the drug is compared with that produced by aspirin (150 mg/kg) or indomethacin (40 mg/kg). Percentage rate of production of gastric irritation, compared with the control drug, (that produced by aspirin or indomethacin was taken as 100%), was regarded as the gastric irritation rate.

[3] = tested on: stomach and intestinal tracts; set-up: species or system rats; conditions: rat, in vivo, po

Structure (SMILES) | analgesic effect (%) (dd mice; 50 mg/kg orally) | analgesic effect (%) (dd mice; 100 mg/kg orally) | analgesic effect (%) (male dd mice; 50 mg/kg orally) | analgesic effect (%) (male dd mice; 100 mg/kg orally) | oedema rate (%) ([1]; 100 mg/kg orally) | mortality at 72 h (Acute toxicity; po, 400 mg/kg p.o.) | oedema rate (%) ([1]; 50 mg/kg orally) | also measured
Cc1c(N(C)C)c(=O)n(-c2ccccc2)n1C [Aminopyrine, reference compound] | 20% | 35% | 17% | 57% |  |  |  | mortality at 72 h (Acute toxicity; po, 600 mg/kg p.o.): 20%
O=C(O)Cc1ccc2c(c1)C(=O)CCO2 [Compound 1, (4-chromanon-6-yl) acetic acid] | 15% | 30% | 31% | 45% |  |  |  | 
CC1(C)CC(=O)c2cc(CC(=O)O)ccc2O1 [Compound 2, (2,2-dimethyl-4-chromanon-6-yl) acetic acid] |  |  | 13% | 62% | 46% |  |  | mortality at 72 h (Acute toxicity; po, 600 mg/kg p.o.): 0%
CC(C(=O)O)c1cc(Cl)c2c(c1)C(=O)CC(C)(C)O2 (stereo not drawn) [Compound 3, 2-(8-chloro-2,2-dimethyl-4-chromanon-6-yl)propionic acid] | 20% | 25% | 27% | 59% | 48% | 0% |  | 
CC(C(=O)O)c1ccc2c(c1)C(=O)CC(C)(C)O2 (stereo not drawn) [Compound 4, 2-(2,2-dimethyl-4-chromanon-6-yl)propionic acid] |  |  |  |  |  |  | 48% | gastric irritation rate(%) ([2]; 50 mg/kg orally): 8%; mortality at 72 h (Acute toxicity; ip, 200 mg/kg i.p.): 0%; mortality at 72 h (Acute toxicity; po, 300 mg/kg p.o.): 0%
CC(C(=O)O)c1cc(Cl)c2c(c1)C(=O)CCO2 (stereo not drawn) [Compound 5, 2-(8-chloro-4-chromanon-6-yl)propionic acid] | 20% | 45% |  |  |  | 0% |  | mortality at 72 h (Acute toxicity; po, 800 mg/kg p.o.): 0%
CC(C(=O)O)c1ccc2c(c1)C(=O)C(C)(C)O2 (stereo not drawn) [Compound 6, 2-(2,2-dimethyl-2,3-dihydrobenzofuran-3-one-5-yl)propionic acid] | 20% | 40% |  |  | 53% |  | 34% | gastric irritation rate(%) ([2]; 100 mg/kg orally): 25%; mortality at 72 h (Acute toxicity; ip, 200 mg/kg i.p.): 0%; mortality at 72 h (Acute toxicity; po, 300 mg/kg p.o.): 0%
CC(C)Cc1ccc(C(C)C(=O)O)cc1 (stereo not drawn) [Ibuprofen, reference compound] |  |  |  |  | 54% |  |  | 
CCCCC1C(=O)N(c2ccccc2)N(c2ccccc2)C1=O [Phenylbutazone, reference compound] |  |  |  |  | 50% | 30% | 33% | findings in sections of the stomach and intestinal tracts [3]: mucosal disorder or ulcer formation
